According to ChEMBL document CHEMBL5728435, “Alpha-D-galactoside inhibitors of galectins” (2021):
pKd: −log10 of the molar value.

Columns and labels:
[1] = molecular target: Galectin-3 (Homo sapiens, UniProt P17931); assay: (§1) Fluorescence Anisotropy Assay: Compounds for galectins were determined by a fluorescence anisotropy assay where the compound was used as an inhibitor of the interaction between galectin and a fluorescein tagged saccharide probe.
[2] = molecular target: Galectin-1 (Homo sapiens, UniProt P09382); assay: as §1
Sequence of Galectin-1 (P09382 whole entry): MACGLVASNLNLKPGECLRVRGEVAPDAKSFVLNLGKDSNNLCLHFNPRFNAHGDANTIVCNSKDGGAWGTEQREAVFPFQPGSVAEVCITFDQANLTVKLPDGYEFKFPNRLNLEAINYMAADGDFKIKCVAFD

Sequence of Galectin-3 (P17931 whole entry): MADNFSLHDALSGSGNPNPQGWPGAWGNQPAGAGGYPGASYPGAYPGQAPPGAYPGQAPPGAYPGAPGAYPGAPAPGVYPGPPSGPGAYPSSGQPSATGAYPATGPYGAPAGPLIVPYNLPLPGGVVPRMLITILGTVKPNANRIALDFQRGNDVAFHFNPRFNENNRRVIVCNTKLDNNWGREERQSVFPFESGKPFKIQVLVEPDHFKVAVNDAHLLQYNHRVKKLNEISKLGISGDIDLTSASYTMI

Structure (SMILES): OCC1O[C@H](Sc2cc(Cl)c(F)c(Cl)c2)C(O)[C@@H](n2cc(-c3nccs3)nn2)[C@H]1O (some centres not stated)
- pKd [1]: 5.00
- pKd [2]: 6.55
